Assay results reported in ChEMBL document CHEMBL4649987, “Benzoisoquinolinediones as Potent and Selective Inhibitors of BRPF2 and TAF1/TAF1L Bromodomains” (ACS Chem Biol, 2017).
“And” between values parts separate entries of the source, which are not always exact repeats. Identical values can stand only once.

Legend:
[1] = molecular target: Bromodomain and PHD finger-containing protein 3 (Homo sapiens) (UniProt Q9ULD4); settings: Compound concentration 10.0 uM, Protein concentration 2.0 uM
[2] = molecular target: Bromodomain-containing protein 2 (Homo sapiens) (UniProt P25440); settings: Compound concentration 10.0 uM, Protein concentration 2.0 uM
Chain of Bromodomain-containing protein 2 (Homo sapiens) (P25440 whole entry, looked up): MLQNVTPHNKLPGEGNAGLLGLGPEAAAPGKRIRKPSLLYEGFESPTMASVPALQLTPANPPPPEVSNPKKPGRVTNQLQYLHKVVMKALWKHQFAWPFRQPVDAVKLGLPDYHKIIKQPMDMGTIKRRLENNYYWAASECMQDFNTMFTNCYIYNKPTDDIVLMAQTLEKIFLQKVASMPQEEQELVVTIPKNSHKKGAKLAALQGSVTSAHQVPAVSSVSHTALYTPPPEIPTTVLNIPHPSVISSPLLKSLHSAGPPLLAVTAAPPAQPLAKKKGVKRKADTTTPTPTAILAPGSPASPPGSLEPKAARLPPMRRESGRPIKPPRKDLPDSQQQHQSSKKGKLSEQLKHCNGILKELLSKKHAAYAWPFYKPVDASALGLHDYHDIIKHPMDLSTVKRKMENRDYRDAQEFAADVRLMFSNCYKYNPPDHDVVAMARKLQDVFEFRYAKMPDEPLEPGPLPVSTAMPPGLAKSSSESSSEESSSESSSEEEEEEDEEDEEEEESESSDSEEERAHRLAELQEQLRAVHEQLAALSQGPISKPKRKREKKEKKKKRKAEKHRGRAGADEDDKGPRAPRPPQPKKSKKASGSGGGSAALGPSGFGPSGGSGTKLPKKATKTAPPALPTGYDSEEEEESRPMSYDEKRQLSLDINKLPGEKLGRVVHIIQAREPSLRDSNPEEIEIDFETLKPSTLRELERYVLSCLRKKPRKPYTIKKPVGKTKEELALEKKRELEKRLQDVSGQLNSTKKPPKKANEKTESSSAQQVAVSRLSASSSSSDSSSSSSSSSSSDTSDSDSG

[3] = molecular target: Bromodomain-containing protein 4 (Homo sapiens) (UniProt O60885); settings: Compound concentration 10.0 uM, Protein concentration 2.0 uM
[4] = molecular target: Transcription initiation factor TFIID subunit 1-like (Homo sapiens) (UniProt Q8IZX4); settings: Compound concentration 10.0 uM, Protein concentration 2.0 uM
[5] = molecular target: Bromodomain-containing protein 7 (Homo sapiens) (UniProt Q9NPI1); settings: Compound concentration 10.0 uM, Protein concentration 2.0 uM
[6] = molecular target: E3 ubiquitin-protein ligase TRIM33 (Homo sapiens) (UniProt Q9UPN9); settings: Compound concentration […], Protein concentration 200.0 uM
[7] = molecular target: Histone-lysine N-methyltransferase 2A (Homo sapiens) (UniProt Q03164); settings: Compound concentration 10.0 uM, Protein concentration 2.0 uM
[8] = molecular target: Bromodomain testis-specific protein (Homo sapiens) (UniProt Q58F21); settings: Compound concentration 10.0 uM, Protein concentration 2.0 uM
[9] = molecular target: Bromodomain and WD repeat-containing protein 3 (Homo sapiens) (UniProt Q6RI45); settings: Compound concentration 10.0 uM, Protein concentration 2.0 uM
[10] = molecular target: Nuclear body protein SP140-like protein (Homo sapiens) (UniProt Q9H930); settings: Compound concentration 10.0 uM, Protein concentration 2.0 uM
[11] = molecular target: Histone acetyltransferase KAT2B (Homo sapiens) (UniProt Q92831); settings: Compound concentration 10.0 uM, Protein concentration 2.0 uM
[12] = molecular target: Bromodomain-containing protein 4 (Homo sapiens) (UniProt O60885); settings: Compound concentration 10.0 uM, Protein concentration 2.0 uM; remark: listed apart in the source
[13] = molecular target: SWI/SNF-related matrix-associated actin-dependent regulator of chromatin subfamily A member 2 (Homo sapiens) (UniProt P51531); settings: Compound concentration 10.0 uM, Protein concentration 2.0 uM
[14] = molecular target: Tyrosine-protein kinase BAZ1B (Homo sapiens) (UniProt Q9UIG0); settings: Compound concentration 10.0 uM, Protein concentration 2.0 uM
[15] = molecular target: Transcription initiation factor TFIID subunit 1 (Homo sapiens) (UniProt P21675); settings: Compound concentration 10.0 uM, Protein concentration 2.0 uM
Chain of Transcription initiation factor TFIID subunit 1 (Homo sapiens) (P21675 whole entry): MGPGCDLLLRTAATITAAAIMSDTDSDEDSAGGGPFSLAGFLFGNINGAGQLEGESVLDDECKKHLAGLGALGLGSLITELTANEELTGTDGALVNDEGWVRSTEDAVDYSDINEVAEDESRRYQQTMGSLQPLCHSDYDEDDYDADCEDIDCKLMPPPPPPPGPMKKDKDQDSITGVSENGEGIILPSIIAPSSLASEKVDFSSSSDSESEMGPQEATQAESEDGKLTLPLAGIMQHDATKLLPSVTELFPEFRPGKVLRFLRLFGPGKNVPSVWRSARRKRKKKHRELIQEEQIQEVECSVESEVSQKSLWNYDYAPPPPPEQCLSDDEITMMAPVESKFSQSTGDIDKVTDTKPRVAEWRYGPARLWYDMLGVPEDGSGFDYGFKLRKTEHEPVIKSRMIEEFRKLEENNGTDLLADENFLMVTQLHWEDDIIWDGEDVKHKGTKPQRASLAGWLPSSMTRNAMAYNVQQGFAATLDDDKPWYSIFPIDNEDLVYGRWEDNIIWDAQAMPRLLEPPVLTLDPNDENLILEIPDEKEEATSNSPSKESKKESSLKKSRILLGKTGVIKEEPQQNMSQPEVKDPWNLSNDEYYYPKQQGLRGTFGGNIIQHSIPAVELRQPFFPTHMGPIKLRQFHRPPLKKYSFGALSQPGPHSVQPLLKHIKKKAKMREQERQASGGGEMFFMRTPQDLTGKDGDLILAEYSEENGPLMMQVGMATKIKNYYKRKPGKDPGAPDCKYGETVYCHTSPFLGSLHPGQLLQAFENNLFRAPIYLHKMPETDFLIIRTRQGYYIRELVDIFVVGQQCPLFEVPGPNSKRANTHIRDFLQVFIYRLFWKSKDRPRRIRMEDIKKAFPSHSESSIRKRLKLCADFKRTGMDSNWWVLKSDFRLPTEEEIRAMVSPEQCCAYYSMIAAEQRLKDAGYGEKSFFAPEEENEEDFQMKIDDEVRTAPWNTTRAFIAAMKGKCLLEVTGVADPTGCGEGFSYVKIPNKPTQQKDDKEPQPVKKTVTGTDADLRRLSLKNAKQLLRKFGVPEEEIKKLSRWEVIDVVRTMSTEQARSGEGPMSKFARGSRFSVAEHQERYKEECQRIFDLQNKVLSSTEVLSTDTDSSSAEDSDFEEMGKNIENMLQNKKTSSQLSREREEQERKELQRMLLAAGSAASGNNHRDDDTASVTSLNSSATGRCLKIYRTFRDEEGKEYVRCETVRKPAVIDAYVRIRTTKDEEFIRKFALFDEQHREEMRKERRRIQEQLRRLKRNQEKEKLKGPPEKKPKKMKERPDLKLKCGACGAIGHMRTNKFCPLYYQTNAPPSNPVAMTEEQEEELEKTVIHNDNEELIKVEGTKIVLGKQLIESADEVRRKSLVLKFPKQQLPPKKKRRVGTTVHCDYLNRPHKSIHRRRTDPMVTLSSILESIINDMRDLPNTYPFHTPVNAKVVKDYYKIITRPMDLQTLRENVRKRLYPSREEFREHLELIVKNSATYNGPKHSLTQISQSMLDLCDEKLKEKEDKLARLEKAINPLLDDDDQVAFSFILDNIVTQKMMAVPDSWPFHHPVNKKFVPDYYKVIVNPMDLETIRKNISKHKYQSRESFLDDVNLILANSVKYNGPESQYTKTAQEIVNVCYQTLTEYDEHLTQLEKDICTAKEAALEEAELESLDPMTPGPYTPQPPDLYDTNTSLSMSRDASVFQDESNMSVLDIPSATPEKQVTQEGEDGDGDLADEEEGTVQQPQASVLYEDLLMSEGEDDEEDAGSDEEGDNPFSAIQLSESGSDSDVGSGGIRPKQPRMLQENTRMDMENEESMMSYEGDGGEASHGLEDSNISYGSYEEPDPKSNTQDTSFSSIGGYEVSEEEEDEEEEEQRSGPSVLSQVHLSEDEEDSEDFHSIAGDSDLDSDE

[16] = molecular target: Bromodomain-containing protein 3 (Homo sapiens) (UniProt Q15059); settings: Compound concentration 10.0 uM, Protein concentration 2.0 uM
Chain of Bromodomain-containing protein 3 (Homo sapiens) (Q15059 2-726 limits assumed): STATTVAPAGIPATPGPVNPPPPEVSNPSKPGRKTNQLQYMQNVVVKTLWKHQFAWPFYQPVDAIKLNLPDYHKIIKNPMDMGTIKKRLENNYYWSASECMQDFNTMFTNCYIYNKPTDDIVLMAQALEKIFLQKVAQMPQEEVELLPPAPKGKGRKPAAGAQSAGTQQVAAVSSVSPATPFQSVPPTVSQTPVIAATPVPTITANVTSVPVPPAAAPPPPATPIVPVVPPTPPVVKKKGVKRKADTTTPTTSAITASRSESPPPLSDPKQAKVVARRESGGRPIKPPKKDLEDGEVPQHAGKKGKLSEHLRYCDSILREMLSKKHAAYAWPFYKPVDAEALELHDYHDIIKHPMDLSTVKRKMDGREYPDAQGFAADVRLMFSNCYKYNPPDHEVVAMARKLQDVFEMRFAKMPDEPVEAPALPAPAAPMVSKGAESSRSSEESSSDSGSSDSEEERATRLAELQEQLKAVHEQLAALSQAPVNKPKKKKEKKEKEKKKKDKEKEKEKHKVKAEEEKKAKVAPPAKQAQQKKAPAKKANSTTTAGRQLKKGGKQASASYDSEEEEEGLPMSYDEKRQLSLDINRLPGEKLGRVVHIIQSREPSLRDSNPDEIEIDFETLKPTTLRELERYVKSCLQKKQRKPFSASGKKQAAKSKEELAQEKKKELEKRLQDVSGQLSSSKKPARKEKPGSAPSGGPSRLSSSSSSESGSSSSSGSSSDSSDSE

[17] = molecular target: Bromodomain adjacent to zinc finger domain protein 2A (Homo sapiens) (UniProt Q9UIF9); settings: Compound concentration 10.0 uM, Protein concentration 2.0 uM
[18] = molecular target: Protein polybromo-1 (Homo sapiens) (UniProt Q86U86); settings: Compound concentration 10.0 uM, Protein concentration 2.0 uM
Chain of Protein polybromo-1 (Homo sapiens) (Q86U86 whole entry, the tested form may be a part): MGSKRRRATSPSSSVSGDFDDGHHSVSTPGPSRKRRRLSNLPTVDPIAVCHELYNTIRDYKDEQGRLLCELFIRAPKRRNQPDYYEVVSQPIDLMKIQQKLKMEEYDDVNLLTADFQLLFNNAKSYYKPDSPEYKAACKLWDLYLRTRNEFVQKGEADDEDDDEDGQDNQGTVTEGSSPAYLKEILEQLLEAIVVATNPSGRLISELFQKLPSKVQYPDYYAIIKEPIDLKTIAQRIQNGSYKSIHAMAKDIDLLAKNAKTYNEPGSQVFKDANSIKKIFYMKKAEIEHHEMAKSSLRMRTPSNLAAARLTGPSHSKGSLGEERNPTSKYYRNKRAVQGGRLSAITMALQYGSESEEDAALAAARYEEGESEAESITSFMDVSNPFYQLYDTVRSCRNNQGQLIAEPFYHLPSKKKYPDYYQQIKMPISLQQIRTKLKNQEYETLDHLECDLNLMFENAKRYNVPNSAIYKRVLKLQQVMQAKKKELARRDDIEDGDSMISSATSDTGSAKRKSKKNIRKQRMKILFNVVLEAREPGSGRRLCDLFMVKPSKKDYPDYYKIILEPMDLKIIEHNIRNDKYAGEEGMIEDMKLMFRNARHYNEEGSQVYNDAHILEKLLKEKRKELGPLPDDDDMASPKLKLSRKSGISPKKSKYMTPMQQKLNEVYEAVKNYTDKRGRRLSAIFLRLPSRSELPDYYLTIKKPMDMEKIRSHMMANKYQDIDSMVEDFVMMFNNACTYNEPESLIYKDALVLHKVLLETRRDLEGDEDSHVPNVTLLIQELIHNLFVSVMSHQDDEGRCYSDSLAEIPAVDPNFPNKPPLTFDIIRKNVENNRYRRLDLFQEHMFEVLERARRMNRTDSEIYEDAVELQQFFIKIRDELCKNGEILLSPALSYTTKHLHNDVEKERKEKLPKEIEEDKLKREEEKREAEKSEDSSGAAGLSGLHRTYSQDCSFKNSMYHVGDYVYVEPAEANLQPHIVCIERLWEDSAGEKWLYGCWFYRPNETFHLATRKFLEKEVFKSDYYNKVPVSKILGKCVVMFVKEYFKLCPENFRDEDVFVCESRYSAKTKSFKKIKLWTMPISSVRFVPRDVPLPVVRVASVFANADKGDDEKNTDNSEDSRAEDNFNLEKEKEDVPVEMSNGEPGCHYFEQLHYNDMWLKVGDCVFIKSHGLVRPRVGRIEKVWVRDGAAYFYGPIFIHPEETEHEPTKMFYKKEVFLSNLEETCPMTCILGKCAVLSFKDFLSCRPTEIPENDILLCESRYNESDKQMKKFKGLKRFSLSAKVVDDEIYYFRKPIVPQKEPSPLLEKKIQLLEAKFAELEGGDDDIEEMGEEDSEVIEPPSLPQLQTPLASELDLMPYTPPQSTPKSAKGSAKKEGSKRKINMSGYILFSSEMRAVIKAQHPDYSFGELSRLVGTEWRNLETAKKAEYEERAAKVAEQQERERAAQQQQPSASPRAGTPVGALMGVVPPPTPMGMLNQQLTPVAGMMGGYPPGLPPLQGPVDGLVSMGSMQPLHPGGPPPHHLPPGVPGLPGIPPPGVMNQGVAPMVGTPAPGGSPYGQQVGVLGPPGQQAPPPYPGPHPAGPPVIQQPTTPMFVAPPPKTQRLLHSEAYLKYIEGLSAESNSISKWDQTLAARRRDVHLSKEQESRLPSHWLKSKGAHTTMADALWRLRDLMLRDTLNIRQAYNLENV

[19] = molecular target: Transcription initiation factor TFIID subunit 1-like (Homo sapiens) (UniProt Q8IZX4); settings: Compound concentration 10.0 uM, Protein concentration 2.0 uM; remark: listed apart in the source
[20] = molecular target: Bromodomain testis-specific protein (Homo sapiens) (UniProt Q58F21); settings: Compound concentration 10.0 uM, Protein concentration 2.0 uM; remark: listed apart in the source
[21] = molecular target: Nucleosome-remodeling factor subunit BPTF (Homo sapiens) (UniProt Q12830); settings: Compound concentration 10.0 uM, Protein concentration 2.0 uM
[22] = molecular target: Protein polybromo-1 (Homo sapiens) (UniProt Q86U86); settings: Compound concentration 10.0 uM, Protein concentration 2.0 uM; remark: listed apart in the source
[23] = molecular target: PH-interacting protein (Homo sapiens) (UniProt Q8WWQ0); settings: Compound concentration 10.0 uM, Protein concentration 2.0 uM
[24] = molecular target: Transcription intermediary factor 1-alpha (Homo sapiens) (UniProt O15164); settings: Compound concentration 10.0 uM, Protein concentration 2.0 uM
[25] = molecular target: Nuclear body protein SP140 (Homo sapiens) (UniProt Q13342); settings: Compound concentration 10.0 uM, Protein concentration 2.0 uM
[26] = molecular target: Protein polybromo-1 (Homo sapiens) (UniProt Q86U86); settings: Compound concentration 10.0 uM, Protein concentration 2.0 uM; remark: listed apart in the source
[27] = molecular target: Histone-lysine N-methyltransferase ASH1L (Homo sapiens) (UniProt Q9NR48); settings: Compound concentration 10.0 uM, Protein concentration 2.0 uM
[28] = molecular target: Protein polybromo-1 (Homo sapiens) (UniProt Q86U86); settings: Compound concentration 10.0 uM, Protein concentration 2.0 uM; remark: listed apart in the source
[29] = molecular target: Bromodomain adjacent to zinc finger domain protein 2B (Homo sapiens) (UniProt Q9UIF8); settings: Compound concentration 10.0 uM, Protein concentration 2.0 uM
[30] = molecular target: ATPase family AAA domain-containing protein 2B (Homo sapiens) (UniProt Q9ULI0); settings: Compound concentration 10.0 uM, Protein concentration 2.0 uM
[31] = molecular target: Transcription intermediary factor 1-beta (Homo sapiens) (UniProt Q13263); settings: Compound concentration 10.0 uM, Protein concentration 2.0 uM
[32] = molecular target: Histone acetyltransferase KAT2A (Homo sapiens) (UniProt Q92830); settings: Compound concentration 10.0 uM, Protein concentration 2.0 uM
[33] = molecular target: Protein polybromo-1 (Homo sapiens) (UniProt Q86U86); settings: Compound concentration 10.0 uM, Protein concentration 2.0 uM; remark: listed apart in the source
[34] = molecular target: Bromodomain-containing protein 2 (Homo sapiens) (UniProt P25440); settings: Compound concentration 10.0 uM, Protein concentration 2.0 uM; remark: listed apart in the source
[35] = molecular target: Protein polybromo-1 (Homo sapiens) (UniProt Q86U86); settings: Compound concentration 10.0 uM, Protein concentration 2.0 uM; remark: listed apart in the source
[36] = molecular target: Transcription intermediary factor 1-alpha (Homo sapiens) (UniProt O15164); settings: Compound concentration 10.0 uM, Protein concentration 2.0 uM; remark: listed apart in the source
[37] = molecular target: ATPase family AAA domain-containing protein 2 (Homo sapiens) (UniProt Q6PL18); settings: Compound concentration 10.0 uM, Protein concentration 2.0 uM
[38] = molecular target: Bromodomain adjacent to zinc finger domain protein 1A (Homo sapiens) (UniProt Q9NRL2); settings: Compound concentration 10.0 uM, Protein concentration 2.0 uM
[39] = molecular target: SWI/SNF-related matrix-associated actin-dependent regulator of chromatin subfamily A member 4 (Homo sapiens) (UniProt P51532); settings: Compound concentration 10.0 uM, Protein concentration 2.0 uM
[40] = molecular target: Histone acetyltransferase p300 (Homo sapiens) (UniProt Q09472); settings: Compound concentration 10.0 uM, Protein concentration 2.0 uM
[41] = molecular target: Transcription initiation factor TFIID subunit 1 (Homo sapiens) (UniProt P21675); settings: Compound concentration 10.0 uM, Protein concentration 2.0 uM; remark: listed apart in the source
[42] = molecular target: Bromodomain-containing protein 3 (Homo sapiens) (UniProt Q15059); settings: Compound concentration 10.0 uM, Protein concentration 2.0 uM; remark: listed apart in the source
[43] = molecular target: Bromodomain-containing protein 9 (Homo sapiens) (UniProt Q9H8M2); settings: Compound concentration 10.0 uM, Protein concentration 2.0 uM

ΔTm [1]: 2.36 °C and 1.34 °C | ΔTm [2]: 0.75 °C | ΔTm [3]: 1.37 °C | ΔTm [4]: 0.79 °C | ΔTm [5]: 3.84 °C | inhibition [6]: 35.5% | ΔTm [7]: 0.13 °C | ΔTm [8]: 0.18 °C | ΔTm [9]: -0.2 °C | ΔTm [10]: -0.24 °C | ΔTm [11]: 2.09 °C | ΔTm [12]: 0.33 °C | ΔTm [13]: 0.18 °C | ΔTm [14]: -0.03 °C | ΔTm [15]: 0.33 °C | ΔTm [16]: 0.33 °C | ΔTm [17]: 0.5 °C | ΔTm [18]: 0.03 °C | ΔTm [19]: 0.31 °C | ΔTm [20]: 0.27 °C | ΔTm [21]: 0.31 °C | ΔTm [22]: 0.54 °C | ΔTm [23]: 0.71 °C | ΔTm [24]: 1.35 °C | ΔTm [25]: 0.2 °C | ΔTm [26]: -0.44 °C | ΔTm [27]: 0.36 °C | ΔTm [28]: 0.73 °C | ΔTm [29]: 0.88 °C | ΔTm [30]: -0.04 °C | ΔTm [31]: -0.53 °C | ΔTm [32]: 0.21 °C | ΔTm [33]: 0.26 °C | ΔTm [34]: 0.74 °C | ΔTm [35]: -0.35 °C | ΔTm [36]: 0.72 °C | ΔTm [37]: -0.03 °C | ΔTm [38]: 0.5 °C | ΔTm [39]: 0.2 °C | ΔTm [40]: 0.9 °C | ΔTm [41]: 0.9 °C | ΔTm [42]: 0.74 °C | ΔTm [43]: 1.21 °C
SMILES: COc1ccccc1C(=O)Nc1cc2c(cc1N1CCCC1)n(C)c(=O)n2C
